Publication PMC11452651 (Nature Communications, 2024)

Assays:
p38α = p38α (Homo sapiens, UniProt Q16539); experiment: Fluorescence polarization; type: binding; conditions: p38 Kiapp
ERK2 = ERK2 (Homo sapiens, UniProt P28482); experiment: Fluorescence polarization; type: binding; conditions: ERK2 Kiapp, Table 2, different electron withdrawing groups at C2 or cyclopentenone scaffold
JNK1 = JNK1 (Homo sapiens, UniProt P45983); experiment: Fluorescence polarization; type: binding; conditions: JNK1 Kiapp
[1] = tested on: AP-1 promoter mediated transcription; type: cell-based; conditions: 1 μM, + PMA, 6 h
[2] = Table 2, different electron withdrawing groups at C2 or cyclopentenone scaffold

Chain of p38α (Q16539 whole entry): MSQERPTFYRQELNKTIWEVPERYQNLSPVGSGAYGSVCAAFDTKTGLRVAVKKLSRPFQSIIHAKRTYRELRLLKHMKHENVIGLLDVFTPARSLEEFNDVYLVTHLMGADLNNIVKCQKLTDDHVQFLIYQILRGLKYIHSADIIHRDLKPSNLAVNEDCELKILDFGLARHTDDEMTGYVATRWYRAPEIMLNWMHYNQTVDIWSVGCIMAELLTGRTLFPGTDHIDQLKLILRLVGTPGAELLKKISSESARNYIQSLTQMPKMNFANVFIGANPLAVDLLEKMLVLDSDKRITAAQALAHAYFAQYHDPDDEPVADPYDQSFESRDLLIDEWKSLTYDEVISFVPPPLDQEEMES
Chain of JNK1 (P45983 whole entry): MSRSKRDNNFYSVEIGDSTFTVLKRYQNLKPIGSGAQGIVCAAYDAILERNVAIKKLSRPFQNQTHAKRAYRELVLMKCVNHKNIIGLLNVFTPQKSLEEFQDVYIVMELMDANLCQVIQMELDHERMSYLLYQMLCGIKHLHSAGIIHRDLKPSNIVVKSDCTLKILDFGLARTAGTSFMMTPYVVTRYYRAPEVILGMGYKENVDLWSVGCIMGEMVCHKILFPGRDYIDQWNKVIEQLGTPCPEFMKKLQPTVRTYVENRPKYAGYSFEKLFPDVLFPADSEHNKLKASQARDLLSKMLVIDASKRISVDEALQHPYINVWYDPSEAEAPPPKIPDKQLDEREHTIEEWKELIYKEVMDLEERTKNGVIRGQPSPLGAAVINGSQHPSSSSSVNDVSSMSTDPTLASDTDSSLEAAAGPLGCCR
Chain of ERK2 (P28482 whole entry): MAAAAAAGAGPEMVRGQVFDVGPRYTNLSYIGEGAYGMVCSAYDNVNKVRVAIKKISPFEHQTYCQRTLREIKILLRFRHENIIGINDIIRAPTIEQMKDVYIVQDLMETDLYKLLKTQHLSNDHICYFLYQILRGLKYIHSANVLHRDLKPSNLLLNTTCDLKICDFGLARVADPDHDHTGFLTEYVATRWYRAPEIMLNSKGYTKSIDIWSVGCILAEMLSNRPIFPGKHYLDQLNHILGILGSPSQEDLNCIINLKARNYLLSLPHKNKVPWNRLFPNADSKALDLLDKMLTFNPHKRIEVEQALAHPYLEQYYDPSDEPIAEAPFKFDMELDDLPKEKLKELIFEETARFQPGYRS

Row | SMILES | Ki (p38α; [2]) [µM] | Ki (ERK2) [µM] | Ki (JNK1; [2]) [µM] | effect on AP-1 mediated transcription [1] | Ki (p38α; Table 4, C4-extended compounds) [µM] | Ki (JNK1; Table 4, C4-extended compounds) [µM]
1 | CC1(C)C=C(C(=O)OC(C)(C)C)C(=O)C1 [compound 26] | 27.4 ± 3.3 | 169 ± 8.7 | > 200 | – | – | –
2 | Oc1ccc(-c2nc(-c3ccncc3)c(-c3ccc(F)cc3)[nH]2)cc1 [SB202190] | – | – | – | attenuate | – | –
3 | COC(=O)C1=CC(C)(C)CC1=O [compound 25] | 28 ± 2.4 | 136 ± 14.1 | > 200 | – | – | –
4 | O=C(Nc1ccc2[nH]nc(-c3ccncc3)c2c1)[C@@H]1CCN(CC(=O)N2CCN(c3ccc(-c4ncccn4)cc3)CC2)C1 [SCH772984] | – | – | – | attenuate | – | –
5 | Cc1cc(-c2cccc(-n3cc(COC(=O)[C@]4(C)C=C(C(=O)OC(C)(C)C)C(=O)CC4)nn3)c2)c(C)c2c1CNCC2 [33S] | – | – | – | – | 2.8 ± 0.7 | 8.8 ± 2.6
6 | C#CCCOC(=O)[C@]1(C)C=C(C(=O)OC(C)(C)C)C(=O)CC1 [29S] | – | – | – | – | 1.1 ± 0.1 | 2.4 ± 0.3
